Reference: the supplement of paper PMC10878532, “Sperm Toolbox—A selection of small molecules to study human spermatozoa” (PLOS ONE, 2024)
Counter-ions that a name gives are not always drawn.

Key:
human spermatozoa [1] = experiment: change in acrosome-reacted (PNA+) sperm vs DMSO, no agonist (capacitating); higher = more of the measured sperm population than DMSO, for viability, fewer PI-positive (dead) cells than DMSO; conditions: incubation time: 3h
human spermatozoa [2] = experiment: acrosome-reacted (PNA+) sperm after agonist cocktail, percent change vs DMSO (capacitating); higher = more of the measured sperm population than DMSO, for viability, fewer PI-positive (dead) cells than DMSO; conditions: incubation time: 3h, capacitating + agonist cocktail 1h
HeLa [3] = experiment: Cell Painting percent induction (share of features beyond 2 z-scores vs DMSO); higher = more features changed / larger toxic effect; extreme values may be limits of the assay; conditions: incubation time: 24h incubation
human spermatozoa [4] = experiment: viability fold change, 1 - (PI-positive fraction / DMSO median); higher = more of the measured sperm population than DMSO, for viability, fewer PI-positive (dead) cells than DMSO; conditions: incubation time: 3h, non-capacitating
human spermatozoa [5] = experiment: progressively motile sperm, percent change vs DMSO (non-capacitating); higher = more of the measured sperm population than DMSO, for viability, fewer PI-positive (dead) cells than DMSO; extreme values may be limits of the assay
HeLa [6] = experiment: HeLa toxicity: nuclei-count effect normalised to DMSO (DMSO = 0); higher = more features changed / larger toxic effect; conditions: incubation time: 24h incubation
human spermatozoa [7] = experiment: hyperactivated motile sperm, percent change vs DMSO (capacitating); higher = more of the measured sperm population than DMSO, for viability, fewer PI-positive (dead) cells than DMSO; conditions: incubation time: 30min incubation
human spermatozoa [8] = experiment: progressively motile sperm, percent change vs DMSO (capacitating); higher = more of the measured sperm population than DMSO, for viability, fewer PI-positive (dead) cells than DMSO; conditions: incubation time: 30min incubation
human spermatozoa [9] = experiment: total motile sperm, percent change vs DMSO (non-capacitating); higher = more of the measured sperm population than DMSO, for viability, fewer PI-positive (dead) cells than DMSO
HepG2 = HepG2 toxicity (resazurin), effect normalised to DMSO (DMSO = 0); higher = more features changed / larger toxic effect; conditions: incubation time: 70h incubation
[10] = incubation time: 10min incubation, 9.99 µM
[11] = incubation time: 10min incubation, 29.9 µM
[12] = incubation time: 3h incubation, 9.99 µM
[13] = incubation time: 3h incubation, 29.9 µM
[14] = incubation time: 6h incubation, 9.99 µM
[15] = incubation time: 6h incubation, 29.9 µM
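Throughout, for progressively motile sperm, percent change vs DMSO (non-capacitating): pooled live human sperm from at least 3 donors, tracked by automated microscopy in 0.5 s time-lapse movies, compounds at 10 and 30 µM, versus median of 16 DMSO wells per plate.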
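Throughout, for total motile sperm, percent change vs DMSO (non-capacitating): sperm pooled from at least 3 donors, tracked in 0.5 s time-lapse movies by automated microscopy after 10 min, 3 h or 6 h with compound at 10 or 30 µM.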

SMILES	change in acrosome-reacted (human spermatozoa [1]; 9.99 µM) [%]	change in acrosome-reacted (human spermatozoa [1]; 29.9 µM) [%]	acrosome-reacted (human spermatozoa [2]; 9.99 µM) [%]	acrosome-reacted (human spermatozoa [2]; 29.9 µM) [%]	Cell Painting percent induction (HeLa [3]; 9.99 µM) [%]	Cell Painting percent induction (HeLa [3]; 29.9 µM) [%]	viability fold change (human spermatozoa [4]; 9.99 µM)	viability fold change (human spermatozoa [4]; 29.9 µM)	progressively motile sperm (human spermatozoa [5]; [10]) [%]	progressively motile sperm (human spermatozoa [5]; [11]) [%]	progressively motile sperm (human spermatozoa [5]; [12]) [%]	progressively motile sperm (human spermatozoa [5]; [13]) [%]	progressively motile sperm (human spermatozoa [5]; [14]) [%]	progressively motile sperm (human spermatozoa [5]; [15]) [%]	HeLa toxicity: nuclei-count effect normalised (HeLa [6]; 9.99 µM) [%]	HeLa toxicity: nuclei-count effect normalised (HeLa [6]; 29.9 µM) [%]	hyperactivated motile sperm (human spermatozoa [7]; 9.99 µM) [%]	hyperactivated motile sperm (human spermatozoa [7]; 29.9 µM) [%]	progressively motile sperm (human spermatozoa [8]; 9.99 µM) [%]	progressively motile sperm (human spermatozoa [8]; 29.9 µM) [%]	total motile sperm (human spermatozoa [9]; [10]) [%]	total motile sperm (human spermatozoa [9]; [11]) [%]	total motile sperm (human spermatozoa [9]; [12]) [%]	total motile sperm (human spermatozoa [9]; [13]) [%]	total motile sperm (human spermatozoa [9]; [14]) [%]	total motile sperm (human spermatozoa [9]; [15]) [%]	HepG2 toxicity (HepG2; 10 µM) [%]	HepG2 toxicity (HepG2; 30 µM) [%]
Cc1ccc(S(=O)(=O)c2c(N)n(CC(O)c3ccc([N+](=O)[O-])cc3)c3nc4ccccc4nc23)cc1 (stereo unspecified)	0.985	1.51	22.3	49.7	0.072	0.648	-0.179	0.2	8.38	7.14	40.6	20.1	45.4	24.6	9.49	44.6	2.52	-33	7.62	16.1	1.39	2.71	1.22	-9.75	-1.06	-11.3	–	–
COc1ccc(CCCN2CCC(COC(c3ccccc3)c3ccccc3)CC2)cc1	1.43	2.85	4.02	18.6	0	10.8	-1.38	-1.52	1.8	-4.83	20	-8.53	32.7	-19.4	11.7	80.9	-18.3	-70.2	-2.66	-7.92	-0.81	2.28	0.77	-5.61	-0.213	-15.3	1.6	103
Cc1[nH]c(/C=C2\C(=O)Nc3ccc(S(=O)(=O)Cc4c(Cl)cccc4Cl)cc32)c(C)c1C(=O)N1CCC[C@@H]1CN1CCCC1	3.55	20.4	-1.2	30.3	20.4	17.5	-3.34	-3.76	6.38	-35.3	20.9	-68.2	18.6	-82	94.7	92.9	-20.8	-80.4	-3.18	-76.5	-0.103	-18.4	-9.66	-49.8	-12.2	-57.4	102	103
COC(=O)c1c(C)[nH]c(C)c1C(=O)c1ccccc1Cc1ccccc1	0.874	0.596	25.4	48.8	0	0.18	0.0191	-0.102	-1.68	-2.66	4.27	-4.02	12.6	4.09	4.01	0.735	21.1	-0.915	13.4	14.7	0.541	-1.51	-6.62	-4.77	-5.32	-5.3	-4.33	10.6
CC(C)(C)c1ccc(S(=O)(=O)Nc2cnc3[nH]c(C(=O)N[C@H]4CCC[C@H]4O)c(-c4ccccc4)c3c2)cc1	0.406	0.723	-55.5	-40.6	–	–	0.0771	0.0653	-18.5	-14	-13	-11.7	-9.71	-14.5	–	–	-89.9	-90.6	-49.7	-49.4	-3.11	0.824	2.99	-0.471	-0.468	-0.141	3.81	16.8
CNc1ccc2oc(C[C@H]3O[C@@]4(CC[C@H]3C)O[C@H]([C@H](C)C(=O)c3ccc[nH]3)[C@H](C)C[C@H]4C)nc2c1C(=O)O	45.3	46.5	106	106	1.33	14.5	-2.53	-2.38	-82.5	-97.5	-99.9	-100	-99.9	-100	79.6	94.7	-68.5	-83.7	-89.8	-99.9	-57.2	-78.3	-89.9	-93.5	-92	-94.3	99.9	102
COc1cc2ncn(-c3cc(OCc4ccccc4C(F)(F)F)c(C(N)=O)s3)c2cc1OC	0.45	-0.12	123	120	2.81	2.27	-1.45	-1.24	16.5	-45.9	26.5	-69.6	43.2	-68.4	78.2	78.9	157	59.7	-3.24	-34.8	-14.5	-45.8	-27.6	-55.7	-30.1	-57.1	17.5	9.88
O=C(N1CCCCC1)N1CCCCC1Cc1ccccc1 (stereo unspecified)	–	–	6.47	7.82	0	0	0.104	-0.0769	-0.571	5.81	19.1	18.1	17.3	16.4	-3.81	-5.74	6.11	3.93	9.35	20.1	-0.235	4.54	-3.63	0.0877	-4.64	-4.36	5.44	-4.3
CN(C)CCCn1cc(C2=C(c3c[nH]c4ccccc34)C(=O)NC2=O)c2ccccc21	0.106	0.127	-2.39	-7.18	0.072	0.072	-0.204	-0.45	3.74	4.75	9.83	-7.22	23.9	-4.1	-5.34	3.61	11.8	-3.96	4	5.48	1.63	0.0178	-1.97	-13.1	1.29	-6.7	-5.59	8.33
N=C(N)Nc1nc2ccccc2[nH]1 [2-Guanidinobenzimidazole]	–	–	-0.796	-2.33	0	0.036	-1.37	-0.849	3.14	0.263	13	14	18.7	6.54	1.07	-4.21	-8.85	-1.69	0.502	7.48	0.879	-2.57	1.34	-1.87	1.24	-6.01	7.28	-2.48
CC(=O)N1CCC(C(=O)N(CCCN2CCN(Cc3ccc(F)cc3)CC2)c2ccc(C)c(Cl)c2)CC1 [B07 hydrochloride]	-0.33	-0.655	-7.75	-16.6	0	0	-0.0249	-0.378	-0.531	-2.62	3.74	-2.22	13.9	-0.382	-8.22	-2.4	4.68	-29.9	2.3	5.54	-3.45	-1.62	-0.778	-4.4	-2.31	-8.75	–	–
CC(C)(C)c1ccc(S(=O)(=O)Nc2ccc(OC(F)(F)F)c(F)c2-c2ccc(C(=O)O)c3ncccc23)cc1F [CCR6 inhibitor]	0.627	0.716	4.58	-1.79	–	–	-0.213	-0.279	4.23	5.16	7.86	2.54	7.11	-7.05	–	–	12.5	-21	3.94	10.4	2.36	5.45	-5.06	-0.0893	-5.81	-4.71	2.54	-7.66
CO[C@H]1[C@@H](OC)C[C@H](C)[C@@H](OC)C2=CC(=O)C=C(NC(=O)/C(C)=C/C=C/[C@H](OC)[C@@H](OC(N)=O)/C(C)=C/[C@@H]1C)C2=O [Herbimycin a]	–	–	–	–	0.216	0	-1.59	-1.04	11.6	-9.27	-37.6	-100	-46.3	-100	23.2	37.9	-22.2	-70.4	3.33	-50.9	7.08	3.19	-13.6	-85.1	-11.7	-85	101	103
CCS(=O)(=O)Nc1ccc2c(c1)/C(=C(/Nc1ccc(CN3CCCCC3)cc1)c1ccccc1)C(=O)N2 [Hesperadin hydrochloride]	0.15	1.01	-34.6	-37.5	19.1	29.9	-0.123	-0.0637	-47.3	-48.7	-44.8	-57.8	-44.4	-55.4	84.4	96.7	-68.7	-76	-13.4	-15.1	-7.06	-8.13	-15.5	-16.9	-15.3	-19	–	–
CCCCCCOC(=O)[C@]1(O)C[C@@H]2O[C@@]1(C)n1c3ccccc3c3c4c(c5c6ccccc6n2c5c31)C(=O)NC4 [KT 5720]	1.66	0.54	0.89	0.941	0	0.072	-0.0644	-0.13	-3.28	-15.1	16.6	6.24	29.8	17.9	-2.2	9.55	5.63	-20.1	2.73	-4.6	-0.664	-5.21	5.89	-0.934	5.3	0.422	–	–
NC(=O)c1cccnc1 [Nicotinamid]	–	–	–	–	–	–	-0.835	-0.522	15.4	14.2	-10.7	3.29	0.762	-3.22	–	–	16	5.44	3.35	13.2	0.928	6.07	-8.41	-0.358	-0.499	0.662	–	–
C[C@@H]1O[C@@H](O[C@H]2C[C@@H](O)[C@]3(CO)[C@H]4[C@H](O)C[C@]5(C)[C@@H](C6=CC(=O)OC6)CC[C@]5(O)[C@@H]4CC[C@]3(O)C2)[C@H](O)[C@H](O)[C@H]1O [Ouabain]	–	–	–	–	0.54	0.324	–	–	–	–	–	–	–	–	72.1	70.1	–	–	–	–	–	–	–	–	–	–	94.6	93.2
c1cnc2c(c1)ccc1cccnc12 [Phenanthroline]	0.27	0.435	8.37	9.76	1.08	1.15	0.0432	-0.258	-0.0696	-0.36	1.8	-21.2	-1.34	-23.3	46	43	18.4	17.2	10.3	16.3	-2.32	-4.26	3.46	-8.46	-1.8	-11.3	–	–
